# Source: patent publication US9238131B2, “Ocular iontophoresis device” (priority 2005, dated 2016)
# Conditions: rabbit, 40 mg/ml in water with no buffer, 2 mA-4 min
# From the text: The assignee made some comparative tests on rabbits done with a first iontophoresis device having cylindrical outer and inner walls (as known in the prior art) and a second iontophoresis device as shown in FIG. 7 (i.e. the inner wall 26 and outer wall 24 being tapered with the same inclination angle).
# The two devices were designed for having the same: • application surface 2; • distance between the active electrode 10 and the application surface 2.
# The area of the active electrode 30 of the second device was about three times more important than those of the first device.
# For each comparative test, iontophoresis conditions were the same (2 mA-4 min).
# After iontophoresis, rabbit ocular tissues were sampled. Tissues sampled included choroids and retina.
# Concentrations of active substances 30 in these ocular tissues were then measured.
structure (smiles),measurement,setting,value
C[C@@H]1C[C@H]2[C@@H]3CCC4=CC(=O)C=C[C@]4(C)[C@@]3(F)[C@@H](O)C[C@]2(C)[C@@]1(O)C(=O)COP(=O)([O-])[O-].[Na+].[Na+] [Dexamethasone Disodium Phosphate],"Increase of tissue concentration, second device versus first device, choroids",,3.7
same,Times more active substance in the tissues with second (tapered) device than with first (cylindrical) device,choroids and retina,At least three
